Measured values as given in patent US20080058373A1, “Compositions and Methods for Treating or Preventing Glaucoma or Progression Thereof” (priority 2006, published 2008).
Where “and” joins values, the source holds several entries; their conditions need not be identical. Identical values can stand only once. Entries after “also recorded” stand apart in the source; their conditions may differ.

How the values were obtained:
Type in all cases: in vivo
Myeloperoxidase (MPO) = Myeloperoxidase (MPO) activity in iris-ciliary body, rabbit paracentesis model; conditions: for MPO activity in iris-ciliary body, Mean / MPO activity in iris-ciliary body: samples collected after the second paracentesis; for MPO activity in iris-ciliary body, Mean: group mean; for Δ/min (mean of the slope of the line recorded every 15 sec for 5 min): 100 μl supernatant aliquot diluted to 3 ml; for Δ/min (mean of the slope of the line recorded every 15 sec for 5 min) / MPO activity in iris-ciliary body: individual eyes
Protocol: 3.9 g of NaH2PO4 2H2O were dissolved in a volumetric flask to 500 ml with water. The pH was adjusted to pH=6 with 3N NaOH.
0.5 g of hexa-decyl-trimethyl-ammonium bromide was dissolved in 100 ml phosphate buffer.
The solution was prepared freshly. Ten microliters of H2O2 (30 wt. %) were diluted to 1 ml with water (solution A). 7.5 mg o-dianisidine 2HCl was dissolved in 45 ml of phosphate buffer and 75 μl of solution A were added.
(§1) Each rabbit was placed in a restraint device and tagged with the alphanumeric code. The formulations were instilled (50 μl) into the conjunctival sac of both eyes 180, 120, 90 and 30 min before the first paracentesis; then 15, 30, 90 min after the first paracentesis. To perform the first paracentesis the animals were anaesthetized by intravenous injection of 5 mg/kg Zoletil® (Virbac; 2.5 mg/kg tiletamine HCl and 2.5 mg/kg zolazepam HCl) and one drop of local anesthetic (Novesina®, Novartis) was administered to the eye. Anterior chamber paracentesis was performed with a 26 G needle attached to a tuberculin syringe; the needle was introduced into the anterior chamber through the cornea, taking care not to damage the tissues. Two hours after the first paracentesis, the animals were sacrificed with 0.4 ml Tanax® (Intervet International B.V.) and the second paracentesis was performed. About 100 μl of aqueous humor were removed at the second paracentesis. Aqueous humor was immediately split in four aliquots and stored at −80° C. until analysis. Then both eyes were enucleated and the iris-ciliary body was carefully excised, placed in polypropylene tubes, and stored at −80° C. until analysis.
The activity of MPO was measured as previously described by Williams et al.[5] The iris-ciliary bodies were carefully dried, weighed and immersed in 1 ml of hexa-decyl-trimethyl-ammonium bromide solution. Then, the samples were sonicated for 10 sec on ice by a ultrasound homogenizer (HD 2070, Bandelin electronic), freeze-thawed three times, sonicated for 10 sec and centrifuged at 14,000 g for 10 min to remove cellular debris. An aliquot of the supernatant (40-200 μl) was diluted to 3 ml with the o-dianisidine 2HCl/H2O2 solution. The change in absorbance at 460 nm was continuously monitored for 5 min by a spectrophotometer (UV/Vis Spectrometer Lambda EZ 201; Perkin Elmer). The slope of the line (Δ/min) was determined for each sample and used to calculate the number of units of MPO in the tissue as follows:
Values were expressed as units of MPO/g of tissue.

[1] = test system: rabbit eye (anterior chamber paracentesis); assay: Rabbit paracentesis model of anterior-segment inflammation (overall conclusion); conditions: 0.1%, 0.5% and 1% topical formulations
Description: Inflammatory processes are multidimensional in origin, and are characterized by complex cellular and molecular events involving numerous components all of which have not been identified. Prostaglandins are among these mediators and play an important role in certain forms of ocular inflammation. Paracentesis of the anterior chamber in the rabbit eye induces inflammatory reaction due to the disruption of the blood-aqueous barrier (“BAB”), which is mediated, at least in part, by prostaglandin E2 [References 1-3 below]. Intraocular or topical administration of PGE2 disrupts the BAB. [Reference 4, below] The treatment schedule adopted in this study was similar to the clinical NSAIDs (Ocufen) treatment schedule used by surgeons for patients before cataract surgery.
Each rabbit was placed in a restraint device and tagged with the alphanumeric code. The formulations were instilled (50 μl) into the conjunctival sac of both eyes 180, 120, 90 and 30 min before the first paracentesis; then 15, 30, 90 min after the first paracentesis. […]
Pupillary diameter, PGE2, protein, PMN, and MPO were expressed as mean±SEM. […] Clinical score was expressed as % of eyes and the statistical analysis was performed using Kruskal-Wallis followed by a Dunn post hoc test. […]

Leukocytes (PMN) = Leukocytes (PMN) measurement in aqueous humor, rabbit paracentesis model; conditions: for PMN numbers in aqueous humor, Mean: second paracentesis, group mean
Protocol: as §1
For the determination of the number of leukocytes we used a haemocytometer (Improved Neubauer Chamber; Bright-line, Hausser Scientific) and a Polyvar 2 microscope (Reichert-Jung).

Prostaglandin E2 (PGE2) = Prostaglandin E2 (PGE2) measurement in aqueous humor, rabbit paracentesis model; conditions: second paracentesis, group mean
Protocol: as §1
For the quantitative determination of PGE2 in the aqueous humor we used the PGE2 Immunoassay kit (R&D Systems; Cat.No. KGE004; Lot.No. 240010). Eleven microliters or 16 μl of aqueous humor were diluted to 110 μl or 160 μl with the calibrator diluent solution provided with the kit. One hundred microliters of samples and of standards were load into a 96-well plate and recorded in a plate layout. Samples were treated following the assay procedure described in the kit. A microplate reader (GDV, Italy; model DV 990 B/V6) set at 450 nm (wavelength correction at 540 nm) was used for making the calibration and analyzing the samples.

Row | Compound | MPO activity in iris-ciliary body, Mean (Myeloperoxidase (MPO); 0.1% topical) | Δ/min (mean of the slope of the line recorded every 15 sec for 5 min) (Myeloperoxidase (MPO); 0.1% treatment, listed as BOL) | MPO activity in iris-ciliary body (Myeloperoxidase (MPO); 0.1% treatment, listed as BOL) | MPO activity in iris-ciliary body, Mean (Myeloperoxidase (MPO); 0.5% topical) | Δ/min (mean of the slope of the line recorded every 15 sec for 5 min) (Myeloperoxidase (MPO); 0.5% treatment, listed as BOL) | MPO activity in iris-ciliary body (Myeloperoxidase (MPO); 0.5% treatment, listed as BOL) | MPO activity in iris-ciliary body, Mean (Myeloperoxidase (MPO); 1% topical) | Δ/min (mean of the slope of the line recorded every 15 sec for 5 min) (Myeloperoxidase (MPO); 1% treatment, listed as BOL) | MPO activity in iris-ciliary body (Myeloperoxidase (MPO); 1% treatment, listed as BOL) | Anti-inflammatory activity in the rabbit paracentesis model (preliminary conclusion) [1] | PMN numbers in aqueous humor, Mean (Leukocytes (PMN); 0.1% topical) | PMN numbers in aqueous humor, Mean (Leukocytes (PMN); 0.5% topical) | PMN numbers in aqueous humor (raw data) (Leukocytes (PMN); 1% topical, samples collected at the second paracentesis, single eyes, listed as BOL) | PMN numbers in aqueous humor, Mean (Leukocytes (PMN); 1% topical) | Levels of PGE2 in aqueous humor, Mean (Prostaglandin E2 (PGE2); 0.1% topical) | Levels of PGE2 in aqueous humor, Mean (Prostaglandin E2 (PGE2); 0.5% topical) | Levels of PGE2 in aqueous humor, Mean (Prostaglandin E2 (PGE2); 1% topical) | Δ/min (mean of the slope of the line recorded every 15 sec for 5 min) (Myeloperoxidase (MPO); 0.1% treatment, listed as Dex) | MPO activity in iris-ciliary body (Myeloperoxidase (MPO); 0.1% treatment, listed as Dex)
1 | Cc1ccc2c(NCC(O)(CC(C)(C)c3cc(F)cc4c3OCC4)C(F)(F)F)cccc2n1 (stereo not shown) | 0.971 MPO Unit/g | 0.051 and 0.042 (2×) and 0.045 and 0.050 and 0.031 (2×) and 0.036 | 1.04 Unit/g and 1.00 Unit/g and 1.14 Unit/g and 1.06 Unit/g and 1.22 Unit/g and 0.61 Unit/g and 1.05 Unit/g and 0.65 Unit/g | 0.775 MPO Unit/g | 0.044 and 0.040 and 0.031 and 0.049 and 0.033 and 0.034 and 0.022 and 0.026 | 0.85 Unit/g and 0.93 Unit/g and 0.79 Unit/g and 1.03 Unit/g and 0.75 Unit/g and 0.74 Unit/g and 0.54 Unit/g and 0.58 Unit/g | 0.542 MPO Unit/g | 0.024 and 0.033 and 0.017 and 0.018 (2×) and 0.016 and 0.052 and 0.013 | 0.66 Unit/g and 0.68 Unit/g and 0.49 Unit/g and 0.40 Unit/g and 0.34 Unit/g and 1.02 Unit/g and 0.31 Unit/g and 0.43 Unit/g | active in this model; also recorded: as effective an anti-inflammatory drug as some of the commonly accepted prior-art steroids or NSAID | 28.333 number/μl | 21.250 number/μl | 30 number/μl and 20 number/μl and 40 number/μl | 28.750 number/μl | 1.452 ng/mL | 1.384 ng/mL | 2.168 ng/mL |  | 
2 | C[C@@H]1C[C@H]2[C@@H]3CCC4=CC(=O)C=C[C@]4(C)[C@@]3(F)[C@@H](O)C[C@]2(C)[C@@]1(O)C(=O)CO [dexamethasone, reference compound] | 0.618 MPO Unit/g |  |  |  |  |  |  |  |  |  | 30.000 number/μl |  |  |  | 2.263 ng/mL |  |  | 0.029 and 0.031 and 0.064 and 0.023 (2×) and 0.019 and 0.024 and 0.021 | 0.71 Unit/g and 0.60 Unit/g and 1.32 Unit/g and 0.48 Unit/g (2×) and 0.39 Unit/g and 0.45 Unit/g and 0.51 Unit/g
